From ChEMBL document CHEMBL1212769, “Multiple-dose safety, tolerability, and pharmacokinetics of oral nemonoxacin (TG-873870) in healthy volunteers” (Antimicrob Agents Chemother, 2010)

How the values were obtained:
[1] = Cmax in human at 500 […], po measured on day 1; format: ADME, organism-based; design: dose 500 mg/kg, route oral; conditions: in vivo
[2] = Cmax in human at 75 […], po measured on day 10; format: ADME, organism-based; design: dose 75 mg/kg, route oral; conditions: in vivo
[3] = Cmax in human at 500 […], po measured on day 10; format: ADME, organism-based; design: dose 500 mg/kg, route oral; conditions: in vivo
[4] = Cmax in human at 750 […], po measured on day 1; format: ADME, organism-based; design: dose 750 mg/kg, route oral; conditions: in vivo
[5] = Cmax in human at 750 […], po measured on day 10; format: ADME, organism-based; design: dose 750 mg/kg, route oral; conditions: in vivo
[6] = Cmax in human at 1000 […], po measured on day 1; format: ADME, organism-based; design: dose 1000 mg/kg, route oral; conditions: in vivo
[7] = Cmax in human at 1000 […], po measured on day 10; format: ADME, organism-based; design: dose 1000 mg/kg, route oral; conditions: in vivo
[8] = Tmax in human at 75 […], po measured on day 1; format: ADME, organism-based; design: route oral; conditions: in vivo
[9] = Tmax in human at 250 […], po measured on day 1; format: ADME, organism-based; design: route oral; conditions: in vivo
[10] = Tmax in human at 75 […], po measured on day 10; format: ADME, organism-based; design: dose 75 mg/kg, route oral; conditions: in vivo
[11] = AUC (0 to 24 hrs)in human at 500 mg/kg, po measured on day 10; format: ADME, organism-based; design: time < 24 hr, dose 500 mg/kg, route oral; conditions: plasma
[12] = AUC (0 to last) in human at 500 mg/kg, po measured on day 16; format: ADME, organism-based; design: time 0 - last, dose 500 mg/kg, route oral; conditions: plasma
[13] = Tmax in human at 250 […], po measured on day 10; format: ADME, organism-based; design: dose 250 mg/kg, route oral; conditions: in vivo
[14] = Tmax in human at 500 […], po measured on day 1; format: ADME, organism-based; design: route oral; conditions: in vivo
[15] = Tmax in human at 500 […], po measured on day 10; format: ADME, organism-based; design: dose 500 mg/kg, route oral; conditions: in vivo
[16] = Tmax in human at 500 […], po measured on day 16; format: ADME, organism-based; design: dose 500 mg/kg, route oral; conditions: in vivo
[17] = Tmax in human at 750 […], po measured on day 1; format: ADME, organism-based; design: route oral; conditions: in vivo
[18] = Tmax in human at 750 […], po measured on day 10; format: ADME, organism-based; design: dose 750 mg/kg, route oral; conditions: in vivo
[19] = Tmax in human at 1000 […], po measured on day 1; format: ADME, organism-based; design: route oral; conditions: in vivo
[20] = Tmax in human at 1000 […], po measured on day 10; format: ADME, organism-based; design: route oral; conditions: in vivo
[21] = AUC (0 to 24 hrs) in human at 75 mg/kg, po measured on day 1; format: ADME, organism-based; design: time < 24 hr, dose 75 mg/kg, route oral; conditions: plasma
[22] = AUC (0 to last) in human at 75 mg/kg, po measured on day 10; format: ADME, organism-based; design: time 0 - last, dose 75 mg/kg, route oral; conditions: plasma
[23] = AUC (0 to 24 hrs) in human at 250 mg/kg, po measured on day 1; format: ADME, organism-based; design: time < 24 hr, dose 250 mg/kg, route oral; conditions: plasma
[24] = AUC (0 to last) in human at 250 mg/kg, po measured on day 10; format: ADME, organism-based; design: time 0 - last, dose 250 mg/kg, route oral; conditions: plasma
[25] = AUC (0 to 24 hrs) in human at 750 mg/kg, po measured on day 1; format: ADME, organism-based; design: time < 24 hr, dose 750 mg/kg, route oral; conditions: plasma
[26] = AUC (0 to last) in human at 750 mg/kg, po measured on day 10; format: ADME, organism-based; design: time 0 - last, dose 750 mg/kg, route oral; conditions: plasma
[27] = AUC (0 to 24 hrs) in human at 1000 […], po measured on day 1; format: ADME, organism-based; design: time < 24 hr, dose 1000 mg/kg, route oral; conditions: plasma
[28] = AUC (0 to last) in human at 1000 […], po measured on day 10; format: ADME, organism-based; design: time 0 - last, dose 1000 mg/kg, route oral; conditions: plasma
[29] = Terminal half life in human at 750 […], po measured on day 10; format: ADME, organism-based; design: route oral; conditions: in vivo, read-out: beta t1/2 (converted)
[30] = Terminal half life in human at 75 […], po measured on day 10; format: ADME, organism-based; design: route oral; conditions: in vivo, read-out: beta t1/2 (converted)
[31] = Terminal half life in human at 500 […], po measured on day 10; format: ADME, organism-based; design: route oral; conditions: in vivo, read-out: beta t1/2 (converted)
[32] = Terminal half life in human at 1000 […], po measured on day 10; format: ADME, organism-based; design: route oral; conditions: in vivo, read-out: beta t1/2 (converted)
[33] = Terminal half life in human at 250 […], po measured on day 10; format: ADME, organism-based; design: route oral; conditions: in vivo, read-out: beta t1/2 (converted)
[34] = Clearance in human assessed as compound recovered in urine at 75 mg/kg, po measured on day 1 up to 24 hrs post dose; format: ADME, organism-based; design: dose 75 mg/kg, route oral; conditions: read-out: amount in urine
[35] = Clearance in human assessed as compound recovered in urine at 75 mg/kg, po measured on day 10 up to 24 hrs post dose; format: ADME, organism-based; design: dose 75 mg/kg, route oral; conditions: read-out: amount in urine
[36] = Clearance in human assessed as compound recovered in urine at 250 mg/kg, po measured on day 1 up to 24 hrs post dose; format: ADME, organism-based; design: dose 250 mg/kg, route oral; conditions: read-out: amount in urine
[37] = Clearance in human assessed as compound recovered in urine at 250 mg/kg, po measured on day 10 up to 24 hrs post dose; format: ADME, organism-based; design: dose 250 mg/kg, route oral; conditions: read-out: amount in urine
[38] = Clearance in human assessed as compound recovered in urine at 500 mg/kg, po measured on day 1 up to 24 hrs post dose; format: ADME, organism-based; design: dose 500 mg/kg, route oral; conditions: read-out: amount in urine
[39] = Clearance in human assessed as compound recovered in urine at 500 mg/kg, po measured on day 10 up to 24 hrs post dose; format: ADME, organism-based; design: dose 500 mg/kg, route oral; conditions: read-out: amount in urine
[40] = Clearance in human assessed as compound recovered in urine at 500 mg/kg, po measured on day 16 up to 24 hrs post dose; format: ADME, organism-based; design: dose 500 mg/kg, route oral; conditions: read-out: amount in urine
[41] = Clearance in human assessed as compound recovered in urine at 750 mg/kg, po measured on day 1 up to 24 hrs post dose; format: ADME, organism-based; design: dose 750 mg/kg, route oral; conditions: read-out: amount in urine
[42] = Clearance in human assessed as compound recovered in urine at 750 mg/kg, po measured on day 10 up to 24 hrs post dose; format: ADME, organism-based; design: dose 750 mg/kg, route oral; conditions: read-out: amount in urine
[43] = Clearance in human assessed as compound recovered in urine at 1000 […], po measured on day 1 up to 24 hrs post dose; format: ADME, organism-based; design: dose 1000 mg/kg, route oral; conditions: read-out: amount in urine
[44] = Clearance in human assessed as compound recovered in urine at 1000mg/kg, po measured on day 10 up to 24 hrs post dose; format: ADME, organism-based; conditions: read-out: amount in urine
[45] = Oral clearance in human at 75 mg/kg measured on day 1; format: ADME, organism-based; design: dose 75 mg/kg; conditions: in vivo
[46] = Oral clearance in human at 75 mg/kg measured on day 10; format: ADME, organism-based; design: dose 75 mg/kg; conditions: in vivo
[47] = Oral clearance in human at 250 mg/kg measured on day 1; format: ADME, organism-based; design: dose 250 mg/kg; conditions: in vivo
[48] = Oral clearance in human at 250 mg/kg measured on day 10; format: ADME, organism-based; design: dose 250 mg/kg; conditions: in vivo
[49] = Oral clearance in human at 500 mg/kg measured on day 1; format: ADME, organism-based; design: dose 500 mg/kg; conditions: in vivo
[50] = Oral clearance in human at 500 mg/kg measured on day 10; format: ADME, organism-based; design: dose 500 mg/kg; conditions: in vivo
[51] = Oral clearance in human at 500 mg/kg measured on day 16; format: ADME, organism-based; design: dose 500 mg/kg; conditions: in vivo
[52] = Oral clearance in human at 1000 […] measured on day 1; format: ADME, organism-based; design: dose 1000 mg/kg; conditions: in vivo
[53] = Oral clearance in human at 1000 […] measured on day 10; format: ADME, organism-based; design: dose 1000 mg/kg; conditions: in vivo
[54] = Renal clearance in human at 75 […], po measured on day 1; format: ADME, organism-based, Kidney; design: route oral; conditions: in vivo, read-out: CL_renal (converted)

Cmax [1]: 5120 ng/mL
Cmax [2]: 514 ng/mL
Cmax [3]: 5560 ng/mL
Cmax [4]: 5750 ng/mL
Cmax [5]: 6820 ng/mL
Cmax [6]: 7750 ng/mL
Cmax [7]: 8200 ng/mL
Tmax [8]: 1.09 h
Tmax [9]: 1.25 h
Tmax [10]: 0.92 h
AUC at 24 h [11]: 38600 ng·h/mL
AUC(0-t) [12]: 26000 ng·h/mL
Tmax [13]: 1.09 h
Tmax [14]: 1 h
Tmax [15]: 1.31 h
Tmax [16]: 3.07 h
Tmax [17]: 1.5 h
Tmax [18]: 1.51 h
Tmax [19]: 2 h
Tmax [20]: 2.07 h
AUC(0-t) at 24 h [21]: 3780 ng·h/mL
AUC(0-t) [22]: 5450 ng·h/mL
AUC(0-t) at 24 h [23]: 13700 ng·h/mL
AUC(0-t) [24]: 18700 ng·h/mL
AUC(0-t) at 24 h [25]: 46100 ng·h/mL
AUC(0-t) [26]: 69300 ng·h/mL
AUC(0-t) at 24 h [27]: 59600 ng·h/mL
AUC(0-t) [28]: 88300 ng·h/mL
half-life [29]: 19.7 h
half-life [30]: 23 h
half-life [31]: 18.6 h
half-life [32]: 19.4 h
half-life [33]: 17.6 h
dose excreted at 24 h [34]: 56.4%
dose excreted at 24 h [35]: 56.7%
dose excreted at 24 h [36]: 36.8%
dose excreted at 24 h [37]: 49.9%
dose excreted at 24 h [38]: 42.2%
dose excreted at 24 h [39]: 57.8%
dose excreted at 24 h [40]: 30.5%
dose excreted at 24 h [41]: 47.1%
dose excreted at 24 h [42]: 41.8%
dose excreted at 24 h [43]: 47.9%
dose excreted at 24 h [44]: 48.6%
CL/F [45]: 303 mL/min
CL/F [46]: 224 mL/min
CL/F [47]: 279 mL/min
CL/F [48]: 223 mL/min
CL/F [49]: 242 mL/min
CL/F [50]: 184 mL/min
CL/F [51]: 313 mL/min
CL/F [52]: 262 mL/min
CL/F [53]: 193 mL/min
CL renal [54]: 198 mL/min
SMILES: COc1c(N2C[C@@H](C)C[C@H](N)C2)ccc2c(=O)c(C(=O)O)cn(C3CC3)c12 [NEMONOXACIN]
